{"source": "patent US11058668B2", "about": "(EIDOS THERAPEUTICS, INC., priority 2018, dated 2021)", "key": {"[1]": {"assay": "Phase 1 (AG10-001) multiple ascending dose pharmacokinetics", "type": "in vivo, human", "details": "for Cmax / Tmax / AUC(0-t): human, plasma, oral, geometric mean; for AUC(0-t): read-out: AUC0-12", "method": "Quantitation was performed using a weighted 1/x^2 linear least squares regression analysis generated from calibration standards prepared on the day of extraction. […]"}, "TTR in human serum": {"molecular_target": "T1, TTR in human serum (Homo sapiens, UniProt P02766)", "T1 construct": "pooled human serum (prepared from human male AB plasma, Sigma; catalog no; H4522; TTR concentration 5 μM); tissue Sigma H4522; host or cells: pooled human serum from human male AB plasma", "assay": "FPE assay in human serum", "type": "binding", "details": "whole human serum, FPE concentration-effect", "excerpt": "FPE assay for binding TTR in buffer and human or dog serum. […] The FPE probe is a thioester TTR ligand that is not fluorescent by itself, however upon binding to the T4 binding site of TTR it covalently modifies lysine 15 (K15), creating a fluorescent conjugate. Ligands that bind to the T4 site of TTR will decrease FPE probe binding as observed by lower fluorescence. […] The change in fluorescence (λex=328 nm and λem=384 nm) were monitored using a microplate spectrophotometer reader (SpectraMax M5) for 6 hr at rt. […] The change in fluorescence (λex=328 nm and λem=384 nm) were monitored using a microplate spectrophotometer reader (SpectraMax M5) for 6 hr at rt."}, "TTR [2]": {"molecular_target": "T2, TTR (Canis lupus familiaris, UniProt A0A8I3NFK0)", "T2 construct": "from tissue; host or cells: serum of orally dosed beagle dogs", "assay": "7-day repeat oral dosing in dogs, TTR occupancy by FPE", "type": "in vivo, beagle dog", "method": "FPE assay for binding TTR in buffer and human or dog serum. […] The FPE probe is a thioester TTR ligand that is not fluorescent by itself, however upon binding to the T4 binding site of TTR it covalently modifies lysine 15 (K15), creating a fluorescent conjugate. Ligands that bind to the T4 site of TTR will decrease FPE probe binding as observed by lower fluorescence. The FPE assay was also adapted for use with dog serum. FPE with TTR in buffer: An aliquot of 98 μL of TTR in PBS (pH 7.4, final concentration: 2.5 μM) was mixed with 1 μL of test compounds (2.5 μM) and 1 μL of FPE probe (0.18 mM stock solution in DMSO: final concentration: 1.8 μM). The change in fluorescence (λex=328 nm and λem=384 nm) were monitored using a microplate spectrophotometer reader (SpectraMax M5) for 6 hr at rt. […] The change in fluorescence (λex=328 nm and λem=384 nm) were monitored using a microplate spectrophotometer reader (SpectraMax M5) for 6 hr at rt.\nBlood (approximately 1.5 mL) was collected from a jugular vein into serum separator tubes on study day 1 (predose D1), pre-dose study day 7 (predose D7), and at 1 hr post-dose study day 7 (postdose D7). These serum samples were analyzed for their TTR occupancy using the FPE assay described above."}, "TTR [3]": {"molecular_target": "T3, TTR (Macaca fascicularis, UniProt Q8HXW1)", "T3 construct": "from tissue; host or cells: serum of dosed male cynomolgus monkeys", "assay": "Single dose study in monkeys, FPE assay on serum", "type": "in vivo, cynomolgus monkey", "method": "There was a washout period of two weeks between the two phases. Blood samples were collected at pre-dose and at approximately 0.083 (IV only), 0.25, 0.5, 1, 2, 4, 8, 12, 24, 48, 72 and 96 hours post-dose. Plasma samples were assayed for AG10 and AG10 acylglucuronide and serum was tested in FPE assay."}, "[4]": {"assay": "Phase 2 study, tolerability in ATTR-CM patients", "type": "in vivo, human", "details": "symptomatic ATTR-CM patients, 28 days", "method": "(§1) Screening and randomization will be followed by a 28-day blinded, placebo-controlled treatment period. Approximately 45 subjects are planned to enroll in the Phase 2 study.\n(§2) The phase 2 clinical study was performed essentially as described in Example 3. A total of 49 patents were included instead of 45: 16 receiving 400 mg bid; 16 receiving 800 mg bid; and 17 receiving placebo."}, "[5]": {"assay": "Population PK analysis, effect of disease state and diuretics", "type": "in vivo, human", "text": "Thus, the final model retained disease state on the central volume of distribution.\nOf the 17 subjects who were on placebo, 14 were on furosemide or torsemide."}, "tetrameric TTR": {"molecular_target": "tetrameric TTR (Homo sapiens, UniProt P02766)", "assay": "Western blot for stabilization of tetrameric TTR, Phase 1 subjects", "type": "in vivo", "set-up": "from tissue; host or cells: serum / blood plasma of dosed healthy human volunteers", "details": "800 mg AG10 HCl q12h, day 12 predose (trough) and post dose (peak); 72h acidification", "description": "Blood plasma samples from the subject are diluted with acidification buffer (sodium acetate, KCl, EDTA, DTT, pH about 4.0) for both the 0 and 72 hour time point. Time 0 hr samples are directly cross-linked with glutaraldehyde, and then quenched. 72 hr samples are incubated at room temperature for 72 hr and then cross-linked and quenched by the same protocol. All samples are then denatured by adding SDS gel loading buffer and boiled prior to gel loading. Each sample is separated in SDS-PAGE gels and analyzed by immunoblotting using anti-TTR antiserum (Polyclonal Rabbit Anti-Human Prealbumin. DAKO Cat# A0002). The density of all TTR bands are quantified using infrared LICOR imaging system or Fluorescence Imaging system and reported. Normalization by IgG band using LICOR 925-32232 or Invitrogen 84546."}, "TTR [6]": {"molecular_target": "TTR (Homo sapiens, UniProt P02766)", "assay": "Phase 2 study in ATTR-CM patients, serum TTR concentration (ARUP Prealbumin assay)", "type": "in vivo", "set-up": "monitoring TTR serum concentrations in trial participants; from tissue; host or cells: serum / plasma of ATTR-CM patients", "details": "WT", "method": "as §1\nAn ARUP Prealbumin assay was also used to analyze TTR blood serum concentration in the MAD cohorts tested. ARUP analyzes samples for prealbumin using the prealbumin reagent kit provided by Roche Diagnostics and run on the Roche Diagnostics c702 module. Lowest reportable limit is 3 mg/dL.\nas §2\nTTR stabilization was measured ex vivo using the FPE and Western blot assays described at the beginning of the examples section. TTR stabilization was measured in vivo by monitoring TTR serum concentrations in trial participants."}}, "note": "Where two headings read alike, the source gives them in different places.", "data": [{"smiles": "Cc1n[nH]c(C)c1CCCOc1cc(C(=O)O)ccc1F", "note": "[AG10, 3-(3-(3,5-dimethyl-1H-pyrazol-4-yl)propoxy)-4-fluorobenzoic acid]", "values": [{"measurement": "accumulation over 12 days of dosing", "setting": "[1]; 100, 300, 800 mg every 12 hr for 12 days", "value": "No significant accumulation"}, {"measurement": "Cmax", "setting": "[1]; 100 mg, 100 mg q12 h, Day 1", "value": 8.67, "unit": "µM"}, {"measurement": "Tmax", "setting": "[1]; 100 mg, 100 mg q12 h, Day 1", "value": 47.6, "unit": "min"}, {"measurement": "AUC(0-t)", "setting": "[1]; 100 mg, 100 mg q12 h, Day 1", "value": 46.3, "unit": "µM·h"}, {"measurement": "Cmax", "setting": "[1]; 100 mg, 100 mg q12 h, Day 12", "value": 12.1, "unit": "µM"}, {"measurement": "Tmax", "setting": "[1]; 100 mg, 100 mg q12 h, Day 12", "value": 33.7, "unit": "min"}, {"measurement": "AUC(0-t)", "setting": "[1]; 100 mg, 100 mg q12 h, Day 12", "value": 70.3, "unit": "µM·h"}, {"measurement": "Cmax", "setting": "[1]; 300 mg, 300 mg q12 h, Day 1", "value": 14.3, "unit": "µM"}, {"measurement": "Tmax", "setting": "[1]; 300 mg, 300 mg q12 h, Day 1", "value": 42.4, "unit": "min"}, {"measurement": "AUC(0-t)", "setting": "[1]; 300 mg, 300 mg q12 h, Day 1", "value": 65.2, "unit": "µM·h"}, {"measurement": "Cmax", "setting": "[1]; 300 mg, 300 mg q12 h, Day 12", "value": 23.5, "unit": "µM"}, {"measurement": "Tmax", "setting": "[1]; 300 mg, 300 mg q12 h, Day 12", "value": 33.7, "unit": "min"}, {"measurement": "AUC(0-t)", "setting": "[1]; 300 mg, 300 mg q12 h, Day 12", "value": 97.7, "unit": "µM·h"}, {"measurement": "Cmax", "setting": "[1]; 800 mg, 800 mg q12 h, Day 1", "value": 31.8, "unit": "µM"}, {"measurement": "Tmax", "setting": "[1]; 800 mg, 800 mg q12 h, Day 1", "value": 47.6, "unit": "min"}, {"measurement": "AUC(0-t)", "setting": "[1]; 800 mg, 800 mg q12 h, Day 1", "value": 120, "unit": "µM·h"}, {"measurement": "Cmax", "setting": "[1]; 800 mg, 800 mg q12 h, Day 12", "value": 42.5, "unit": "µM"}, {"measurement": "Tmax", "setting": "[1]; 800 mg, 800 mg q12 h, Day 12", "value": 53.5, "unit": "min"}, {"measurement": "AUC(0-t)", "setting": "[1]; 800 mg, 800 mg q12 h, Day 12", "value": 159, "unit": "µM·h"}, {"measurement": "concentration at which complete occupancy is achieved", "setting": "TTR in human serum", "value": "≥ 10", "unit": "µM"}, {"measurement": "TTR occupancy at the steady state trough", "setting": "TTR [2]; 50, 100, 200 mg/kg/d oral, day 7 pre-dose", "value": "81-94%"}, {"measurement": "TTR occupancy at steady state Cmax", "setting": "TTR [2]; all AG10 treated groups, day 7 post-dose (1 hr)", "value": "> 97", "unit": "%"}, {"measurement": "binding to TTR in serum (FPE assay)", "setting": "TTR [3]; 5 mg/kg per oral, 3 male monkeys", "value": "effectively binds to TTR in monkey serum"}, {"measurement": "TTR stabilization versus dose (FPE assay)", "setting": "TTR [3]; orally administered", "value": "stabilized TTR in a dose dependent manner"}, {"measurement": "tolerability", "setting": "[4]", "value": "well tolerated"}, {"measurement": "circulating trough concentration that is a suitable target based on stabilization of TTR", "setting": "[5]; Phase 1 MAD 3 (800 mg Q12h) and Phase 2 ATTR-CM patients", "value": "~8", "unit": "µM"}, {"measurement": "effect of commonly used diuretics on exposure", "setting": "[5]; furosemide or torsemide co-administration", "value": "do not interfere with exposure"}, {"measurement": "clearance", "setting": "[5]; healthy adult volunteers in Phase 1 vs subjects in Phase 2, patient status or diuretics (furosemide/torsemide)", "value": "No difference in clearance"}, {"measurement": "volume of distribution", "setting": "[5]; subjects on furosemide/torsemide compared to healthy adult volunteers", "value": "lower"}, {"measurement": "stabilization of tetrameric TTR (Western blot)", "setting": "tetrameric TTR", "value": "full stabilization of tetrameric TTR"}, {"measurement": "Blood Serum TTR Concentration, Average Change", "setting": "TTR [6]; 400 mg b.i.d.", "value": 32, "unit": "%"}, {"measurement": "Blood Serum TTR Concentration, Average Change", "setting": "TTR [6]; 800 mg b.i.d.", "value": 35, "unit": "%"}]}]}
